# Results: US11540516B2, “M-diamide compound and preparation method therefor and use thereof” (priority 2018, dated 2023)
# Where two headings read alike, the source gives them in different places.
# What was measured:
# [1] = test system: Spodoptera litura; test: Indoor bioactivity test against Spodoptera litura (leaf dip); type: in vivo; details: foliar
# Procedure: (§1) The leaf dip method was used to assay the insecticidal activity of compounds to strains of Spodoptera litura. Dip the leaf disc into the solution prepared with compound of this invention for 10 seconds, and dry them in a cool environment. Then place them in Petri dish with 4 discs per dish. Put the filter paper into the Petri dish to moisturize it. Put 10 of Spodoptera litura into each dish, which was repeated by 3 times. The dishes were placed in an illumination incubator and incubated at 25° C. with 14 hL: 10 hD illumination. The number of Spodoptera litura death was investigated on the 1st, 2nd and 3rd day after treatment, and the mortality was calculated.
# According to the above method, compound 4, 23 and KC1 were selected and parallelly tested against Spodoptera litura to compare the insecticidal activity.
# [2] = test system: Plutella xylostella; test: Indoor bioactivity test against Plutella xylostella (leaf dip); type: in vivo; details: foliar; for mortality at 0.4 ppm / mortality at 1 ppm: 3rd day after treatment
# Procedure: as §1, with “Plutella xylostella.” for “Spodoptera litura.”, “Plutella xylostella” for “Spodoptera litura”
# According to the above method, compound 4 and KC1 were selected and parallelly tested against Plutella xylostella to compare their insecticidal activity.
# [3] = test system: Mythimna separata; test: Indoor bioactivity test against Mythimna separata (leaf dip); type: in vivo; details: foliar, 3rd day after treatment
# Text: The leaf dip method was used to assay the insecticidal activity of compounds to strains of Mythimna sepatata. Cut above ground part of fresh maize seedlings, about 10 cm. Dip the maize seedlings into the solution prepared with compound of this invention for 10 seconds and dry them in a cool environment. Then cut the dry maize seedlings into 3˜5 cm leaf sections and put 3 leaf sections into each petri dish. Put ten of 4th-instar larvae of Mythimna separatas into each dish, which was repeated by 3 times. Then the dishes were placed in an illumination incubator and incubated at 25° C. in the dark. Symptoms were investigated on the 1st, 2nd and 3rd day after treatment, and the mortality was calculated.
# [4] = test system: Chilo suppressalis; test: Indoor bioactivity test against Chilo suppressalis (rice stem dip); type: in vivo
# Procedure: The leaf dip method was used to assay the insecticidal activity of compounds to strains of Chilo suppressalis. The rice was cultivated in a plastic pot with a diameter of 9 cm and a height of 10 cm. When the rice grew about 25 cm, the aerial part of robust and consistent rice seedlings were selectively cut. Their leaves were removed and their stems of about 8 cm were kept for use. Pour the solution prepared with compound of this invention into the Petri dish (about 40 mL) and immerse the rice stems into the solution for 10 seconds. Take rice stems out and dry them in a cool environment. Put a wet cotton ball at the bottom of finger-like glass tube and 5 rice stems in each tube. Put 10 of 3rd-instar larvae of Chilo suppressa into each tube, which was repeated by 3 times. Seal the tubes with black cotton cloth and tighten them with rubber band. The tubes were placed in a illumination incubator at 28° C. and incubated in the dark. The number of alive Chilo suppressalis and the total number were investigated 3 days after treatment. The mortality was calculated.
# According to the above method, Compound 23 and KC2 were selected and parallelly tested against Chilo suppressalis.
# [5] = test system: Spodoptera exigua Hiibner; test: Indoor bioactivity test against Spodoptera exigua Hiibner (leaf dip); type: in vivo; details: foliar, 3rd day after treatment
# Procedure: as §1, with “of Spodoptera exigua Hiibner. Dip the” for “of Spodoptera litura. Dip the”, “of Spodoptera exigua Hiibners into each” for “of Spodoptera litura into each”, “of Spodoptera exigua Hiibner death was” for “of Spodoptera litura death was”
# [6] = test system: soybean thrips; test: Biological activity on soybean thrips in greenhouse (foliar spray); type: in vivo; details: for mortality at 10 ppm / mortality at 50 ppm: Thrips, foliar; for No. of thrips 1 d / No. of thrips 6 d: foliar spray, 5% SL
# Procedure: Test system: naturally occurring thrips population on soybeans planted in greenhouse. The basic number of active thripses were more than 100 thripses per trifoliate leaf. Under the same conditions, the sensitivity of the thrips population to Spinetoram (dose: 50 mg/L) is 96.55% mortality on the 6th day after treatment.
# The size of the plot: 10 m^2, no repetition.
# Test formulation: each compound was made into 5% SL (compound 5%+emulsifier 5%+solvent to make up 100%).
# (1) Spraying time: both adult and larva thripses were in the active period. The number of spray: 1 time.
# (2) Standard for water usage: when dose was in mg/kg, the upper leaves were wet and water began to drop therefrom.
# (3) Survey standard: count three single leaves as one leaf. Three leaves were randomly selected and investigated for the number of adult and larva thripses on them.
# […] 2 surveys were conducted.
# [7] = 3rd day after treatment, read-out: mortality of Spodoptera litura
# [8] = 3rd day after treatment, read-out: mortality of Chilo suppressalis
# [9] = 24 h, 1 d, read-out: Mortality (%) 1 d
# [10] = 48 h, 2 d, read-out: Mortality (%) 2 d
# [11] = 72 h, 3 d, read-out: Mortality (%) 3 d
# [12] = 24 h, read-out: Mortality % 1 d
# [13] = 144 h, read-out: Mortality % 6 d
structure (smiles),measurement,setting,value
"O=C(Nc1c(Br)cc(C(F)(C(F)(F)F)C(F)(F)F)cc1C(F)(F)F)c1cccc(N(CC2CC2)C(=O)c2ccc(F)cc2)c1F [Compound 62, N-(2-bromo-4-(perfluoropropan-2-yl)-6-(trifluoromethyl)phenyl)-3-(N-(cyclopropylmethyl)-4-fluorobenzamido)-2-fluorobenzamide]",mortality at 0.4 ppm,[1]; [7],≥ 90%
same,mortality at 0.4 ppm,[2],≥ 90%
same,mortality at 1 ppm,[3],≥ 90%
same,mortality at 5 ppm,[4]; [8],≥ 90%
same,mortality at 1 ppm,[5],90%
"COC(c1cc(Br)c(NC(=O)c2cccc(N(CC3CC3)C(=O)c3ccc(C#N)cc3)c2F)c(C(F)(F)F)c1)(C(F)(F)F)C(F)(F)F [Compound 24, N-(2-bromo-4-(1,1,1,3,3,3-hexafluoro-2-methoxypropan-2-yl)-6-(trifluoromethyl)phenyl)-3-(4-cyano-N-(cyclopropylmethyl)benzamido)-2-fluorobenzamide]",melting point,,152.3 to 153.5 °C
"O=C(Nc1c(Br)cc(C(F)(C(F)(F)F)C(F)(F)F)cc1C(F)(F)F)c1cccc(N(CC2CC2)C(=O)c2ccc(Cl)cc2)c1F [Compound 41, N-(2-bromo-4-(perfluoropropan-2-yl)-6-(trifluoromethyl)phenyl)-3-(4-chloro-N-(cyclopropylmethyl)benzamido)-2-fluorobenzamide]",mortality at 0.4 ppm,[1]; [7],≥ 90%
same,mortality at 0.4 ppm,[2],≥ 90%
same,mortality at 1 ppm,[3],≥ 90%
same,mortality at 5 ppm,[4]; [8],≥ 90%
same,mortality at 1 ppm,[5],90%
"O=C(Nc1c(Br)cc(C(F)(C(F)(F)F)C(F)(F)F)cc1C(F)(F)F)c1cccc(N(CC2CC2)C(=O)c2ccccc2)c1F [Compound 4, N-(2-bromo-4-(perfluoropropan-2-yl)-6-(trifluoromethyl)phenyl)-3-(N-(cyclopropylmethyl)benzamido)-2-fluorobenzamide]",mortality at 10 ppm,[1]; 3rd day after treatment,≥ 90%
same,mortality at 0.4 ppm,[1]; [9],20%
same,mortality at 1 ppm,[1]; [9],73.3%
same,mortality at 0.4 ppm,[1]; [10],26.7%
same,mortality at 1 ppm,[1]; [10],73.3%
same,mortality at 0.4 ppm,[1]; [11],26.7%
same,mortality at 1 ppm,[1]; [11],73.3%
same,mortality at 0.4 ppm,[2],≥ 90%
same,mortality at 0.04 ppm,[2]; [9],30%
same,mortality at 0.04 ppm,[2]; [10],80%
same,mortality at 0.04 ppm,[2]; [11],100%
same,mortality at 1 ppm,[3],≥ 90%
same,mortality at 5 ppm,[4]; [8],≥ 90%
same,mortality at 1 ppm,[5],90%
same,mortality at 10 ppm,[6]; [12],92.4%
same,mortality at 50 ppm,[6]; [12],97.7%
same,mortality at 10 ppm,[6]; [13],98.3%
same,mortality at 50 ppm,[6]; [13],94.8%
same,No. of thrips 1 d,[6]; dose 10 ppm,20
same,No. of thrips 6 d,[6]; dose 10 ppm,2
same,No. of thrips 1 d,[6]; dose 50 ppm,6
same,No. of thrips 6 d,[6]; dose 50 ppm,6
"CC(C1CC1)N(C(=O)c1ccc(S(C)(=O)=O)cc1)c1cccc(C(=O)Nc2c(Br)cc(C(F)(C(F)(F)F)C(F)(F)F)cc2C(F)(F)F)c1F (stereo not shown) [Compound 77, N-(2-bromo-4-(perfluoropropan-2-yl)-6-(trifluoromethyl)phenyl)-3-(N-(1-cyclopropylethyl)-4-(methylsulfonyl)benzamido)-2-fluorobenzamide]",melting point,,76 to 78.8 °C
"COC(c1cc(Br)c(NC(=O)c2cccc(N(CC3CC3)C(=O)c3ccc(Cl)cc3)c2F)c(C(F)(F)F)c1)(C(F)(F)F)C(F)(F)F [Compound 43, N-(2-bromo-4-(1,1,1,3,3,3-hexafluoro-2-methoxypropan-2-yl)-6-(trifluoromethyl)phenyl)-3-(4-chloro-N-(cyclopropylmethyl)benzamido)-2-fluorobenzamide]",melting point,,139.3 to 140.2 °C
"O=C(Nc1c(Br)cc(C(F)(C(F)(F)F)C(F)(F)F)cc1C(F)(F)F)c1cccc(N(CC2CC2)C(=O)c2ccc(C(F)(F)F)cc2)c1F [Compound 37, N-(2-bromo-4-(perfluoropropan-2-yl)-6-(trifluoromethyl)phenyl)-3-(N-(cyclopropylmethyl)-4-(trifluoromethyl)benzamido)-2-fluorobenzamide]",mortality at 0.4 ppm,[1]; [7],≥ 90%
same,mortality at 1 ppm,[2],≥ 90%
same,mortality at 1 ppm,[3],≥ 90%
same,mortality at 5 ppm,[4]; [8],≥ 90%
same,mortality at 1 ppm,[5],90%
"O=C(Nc1c(Br)cc(C(F)(C(F)(F)F)C(F)(F)F)cc1C(F)(F)F)c1cccc(N(CC2CC2)C(=O)c2ccc(OC(F)(F)F)cc2)c1F [Compound 60, N-(2-bromo-4-(perfluoropropan-2-yl)-6-(trifluoromethyl)phenyl)-3-(N-(cyclopropylmethyl)-4-(trifluoromethoxy)benzamido)-2-fluorobenzamide]",mortality at 0.4 ppm,[1]; [7],≥ 90%
same,mortality at 1 ppm,[2],≥ 90%
same,mortality at 1 ppm,[3],≥ 90%
same,mortality at 10 ppm,[5],≥ 90%
"CC(N(C(=O)c1ccc(C#N)cc1)c1cccc(C(=O)Nc2c(Br)cc(C(F)(C(F)(F)F)C(F)(F)F)cc2C(F)(F)F)c1F)C1(Cl)CC1 (stereo not shown) [Compound 75, N-(2-bromo-4-(perfluoropropan-2-yl)-6-(trifluoromethyl)phenyl)-3-(N-(1-(1-chlorocyclopropyl)ethyl)-4-cyanobenzamido)-2-fluorobenzamide]",mortality at 10 ppm,[1]; 3rd day after treatment,≥ 90%
same,mortality at 1 ppm,[2],≥ 90%
same,mortality at 1 ppm,[3],≥ 90%
same,mortality at 10 ppm,[5],≥ 90%
"N#Cc1ccc(C(=O)N(CC2CC2)c2cccc(C(=O)Nc3c(Br)cc(C(F)(C(F)(F)F)C(F)(F)F)cc3C(F)(F)F)c2F)cc1 [Compound 23, N-(2-bromo-4-(perfluoropropan-2-yl)-6-(trifluoromethyl)phenyl)-3-(4-cyano-N-(cyclopropylmethyl)benzamido)-2-fluorobenzamide]",mortality at 0.4 ppm,[1]; [7],≥ 90%
same,mortality at 0.4 ppm,[1]; [9],40%
same,mortality at 1 ppm,[1]; [9],93.3%
same,mortality at 0.4 ppm,[1]; [10],46.7%
same,mortality at 1 ppm,[1]; [10],100%
same,mortality at 0.4 ppm,[1]; [11],60%
same,mortality at 1 ppm,[1]; [11],100%
same,mortality at 0.4 ppm,[2],≥ 90%
same,mortality at 1 ppm,[3],≥ 90%
same,mortality at 5 ppm,[4]; [8],≥ 90%
same,mortality at 0.4 ppm,"[4]; 72 h, 0.4 ppm, 3d",53.3%
same,mortality at 1 ppm,"[4]; 72 h, 1 ppm, 3d",93.3%
same,mortality at 2 ppm,"[4]; 72 h, 2 ppm, 3d",100%
same,mortality at 5 ppm,"[4]; 72 h, 3d, read-out: Mortality (%, 3d) 5 ppm",100%
same,mortality at 1 ppm,[5],90%
"N#Cc1ccc(C(=O)N(c2cccc(C(=O)Nc3c(Br)cc(C(F)(C(F)(F)F)C(F)(F)F)cc3C(F)(F)F)c2F)C(C2CC2)C2CC2)cc1 [Compound 32, N-(2-bromo-4-(perfluoropropan-2-yl)-6-(trifluoromethyl)phenyl)-3-(4-cyano-N-(dicyclopropylmethyl)benzamido)-2-fluorobenzamide]",melting point,,73.5 to 76.1 °C
